Marks after values point to notes of the source that are not given here.
Key:
α-GAL [1] = assay type: in vivo, human; settings: first eleven patients treated at least 12 weeks; two regimens
Description: Eight patients in the study received an ascending dose of 25, 100, and then 250 mg b.i.d. over 6 weeks, followed by 50 mg/day for the remainder of the study.
For purposes of calculating the percentage of normal in the table, the level of α-GAL that is normal was derived by using the average of the levels of α-GAL in white blood cells of 15 healthy volunteers from the multiple-dose Phase I study.

GL-3 [2] = test: Oral administration of Amigal to mice that produce defective human α-GAL, GL-3; assay type: in vivo
Description: Kidney GL-3 levels were assessed by an independent expert using electron microscopy.

GL-3 [3] = test: Example 6, urinalysis of GL-3; assay type: in vivo, human
Description: Four male patients received a single 150 mg Q.O.D for 12 weeks (Group B); while five male patients received 150 mg Q.O.D. for 24 weeks (Group C). Finally nine female patients were randomized to receive one of three dosages: 50, 150 or 250 mg Q.O.D for 12 weeks (Group D) (FIG. 8).
Urine was analysed at baseline and periodically every 2-6 weeks for GL-3.

α-GAL [4] = molecular target: T1, α-GAL (Homo sapiens, UniProt P06280, R301Q); test: Example 8, α-GAL expression in tissues of transgenic mice expressing R301Q; assay type: in vivo; settings: 100 mg/kg ad libitum, four weeks
T1 construct: from tissue; host or cells: skin, heart, kidney of transgenic mice
T1 sequence (P06280 32-429 R301Q): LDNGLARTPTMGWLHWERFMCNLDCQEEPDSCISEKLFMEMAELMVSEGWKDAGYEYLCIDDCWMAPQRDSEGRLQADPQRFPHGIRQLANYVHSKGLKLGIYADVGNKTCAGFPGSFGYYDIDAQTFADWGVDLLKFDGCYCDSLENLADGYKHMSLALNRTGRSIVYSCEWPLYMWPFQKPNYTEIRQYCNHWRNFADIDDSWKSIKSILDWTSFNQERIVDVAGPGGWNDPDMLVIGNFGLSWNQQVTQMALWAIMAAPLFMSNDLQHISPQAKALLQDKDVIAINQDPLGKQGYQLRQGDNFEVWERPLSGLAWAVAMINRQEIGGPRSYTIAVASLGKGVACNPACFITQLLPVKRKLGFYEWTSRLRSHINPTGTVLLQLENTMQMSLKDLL

GL-3 [5] = test: Example 11, immunohistochemical staining of GL-3 in hR301Q GLA Tg/KO mice; assay type: in vivo
Description: Immunohistochemical staining with a monoclonal anti-GL-3 antibody (nuclei counterstained with methyl green) was also performed. […] Data shown are representative pictures from 7-8 mice/group.

hR301Q GLA [6] = molecular target: T2, hR301Q GLA (Homo sapiens, UniProt P06280, R301Q); test: Example 12, GLA activity and protein in tissues of hR301Q GLA Tg/KO mice; assay type: in vivo; settings: 4 weeks
T2 construct: from tissue; host or cells: skin, heart, kidney lysates of hR301Q GLA Tg/KO mice
T2 sequence (P06280 32-429 R301Q): T1 sequence (P06280 32-429 R301Q)
Description: (§1) Tissue lysates from skin, heart, and kidney were prepared and tested for GLA activity (using 4-MUG as substrate, expressed in nmol/mg protein/hr), GLA protein (using immunoblotting of […] tissue lysate with anti-human GLA antibody) and GL-3 levels (using LC-MS/MS, expressed in mg/g of tissue weight). […] Each bar represents the mean±SEM of n=7-8 mice/group. Each lane in the Western blots represents one mouse from each group.

GL-3 [7] = test: Example 12, GL-3 levels in tissues of hR301Q GLA Tg/KO mice; assay type: in vivo; settings: 3-300 mg/kg/day, 4 weeks; p<0.05 vs. untreated
Description: as §1

hR301Q GLA [8] = molecular target: T2, hR301Q GLA; test: Example 13, half-life of elevated hR301Q GLA after DGJ withdrawal; assay type: in vivo, mice; settings: after 4 weeks 100 mg/kg/day DGJ, washout; exponential decay curves
GL-3 [9] = test: Example 15, 24-hour urine GL-3; assay type: in vivo, human
Description: Plasma lyso-Gb3 and 24-hour urine GL-3 were analyzed by liquid chromatography-mass-spectroscopy using a novel stable isotope-labeled internal standard, 13C6-lyso-Gb3 (lower-limit-of-quantification: 0.200 ng/mL, 0.254 nmol/L).

[10] = system: patients with Fabry disease; test: Example 15, echocardiography; assay type: in vivo, human; settings: for decrease in interventricular septal wall thickness from baseline: up to 24 months
Description: Left ventricular mass index, left posterior wall thickness, diastolic, interventricular septum thickness, diastolic and other parameters were assessed through blinded, centralized evaluation. The baseline visit of extension study AT1001-041/NCT01458119 was used as the last assessment.

[11] = system: patients with Fabry disease; test: Example 15, Gastrointestinal Symptoms Rating Scale; assay type: in vivo, human
Description: Patient-reported outcomes were assessed using the Gastrointestinal-Symptoms-Rating-Scale (GSRS), Short Form-36v2TM and Brief-Pain-Inventory-Pain-Severity-Component.

[12] = system: patients with Fabry disease; test: Example 15, safety analysis and adverse events; assay type: in vivo, human
Text: Randomized patients receiving ≥1 dose were included in the safety analysis, which comprised vital signs, physical exams, electrocardiograms, clinical labs, and adverse events.

[13] = All Patients, OLE DGJ treatment, (95% CI)
[14] = Patients with Symptoms at BL, OLE DGJ treatment, (95% CI)
[15] = Patients with Symptoms at BL, Stage 1
[16] = open-label-extension, 6/57 patients

OC[C@H]1NC[C@H](O)[C@@H](O)[C@H]1O [DGJ, (2R,3S,4R,5S)-2-(hydroxymethyl) piperdine-3,4,5-triol]
patients with an increase in α-GAL activity (α-GAL [1]): 10 of the 11
GL-3 after oral administration (GL-3 [2]): GL-3 reductions observed
expected good responders with urine GL-3 decrease greater than 10% (GL-3 [3]; female): 3 of the 5
mean decrease in urine GL-3 levels (GL-3 [3]; female expected good responders): 20%
good responders with urine GL-3 decrease greater than 10% (GL-3 [3]; male good responders): eight of the eleven
mean decrease in urine GL-3 levels (GL-3 [3]; male good responders): 38%
urine GL-3 following treatment (GL-3 [3]; male moderate and non responders): overall increases in urine GL-3
α-GAL expression in the skin, heart and kidney (α-GAL [4]): increased
GL-3 signal, less frequent vs daily dosing (GL-3 [5]; 300 mg/kg, 4 weeks): greater GL-3 reduction was seen in each tissue
GL-3 signal by immunohistochemistry (GL-3 [5]; both daily and less frequent treatment, skin, heart, kidney): reduced the amount and intensity of GL-3 signal in each tissue
GLA activity in skin, heart, kidney (hR301Q GLA [6]; 3, 10, 30, 100 or 300 mg/kg/day, p<0.05 vs. untreated): significant and dose-dependent increase in GLA activity
GLA protein (immunoblotting) (hR301Q GLA [6]; 3-300 mg/kg/day): significant and dose-dependent increase
GL-3 levels in skin, heart, kidney (GL-3 [7]): significant reduction in GL-3 levels
half-life of elevated tissue hR301Q GLA levels (hR301Q GLA [8]): 48 to 60 h
mean change in 24-hour urine GL-3 substrate (±SEM) concentration (GL-3 [9]; baseline to month 6, suitable mutants, p=0.44 vs placebo): −361±169 ng/mg creatinine
24-hour urine GL-3 substrate (±SEM) concentration reached (GL-3 [9]; month 6, suitable mutants): 555±151 ng/mg creatinine
LVMi change from baseline (±SD) ([10]; 30/36 months of treatment, ±21.5): −7.8 g/m^2
LVMi change from baseline ([10]; 30/36 months, patients with baseline LVH (n=4)): −30.0±17.5 g/m^2
left ventricular posterior wall thickness ([10]; in vivo): stable for up to 24 months
decrease in interventricular septal wall thickness from baseline [10]: 5.2%
decrease in interventricular septal wall thickness from baseline ([10]; ±0.051, baseline 1.17 cm±0.057): 0.061 cm
GSRS Diarrhea, change from Baseline to Month 6 ([11]; All Patients, ITT-suitable, Stage 1 double-blind, p = 0.03): −0.3*^2
GSRS Abdominal Pain, change to Month 24 [11, 13]: −0.2 (−0.5, +0.1)
GSRS Constipation, change to Month 24 [11, 13]: −0.4 (−0.7, +0.0)*^5
GSRS Diarrhea, change from Baseline (DGJ) or Month 6 (Placebo) to Month 24 [11, 13]: −0.5 (−0.9, −0.1)*^4
GSRS Indigestion, change to Month 24 [11, 13]: −0.4 (−0.7, −0.04)*^4
GSRS Reflux, change to Month 24 [11, 13]: −0.2 (−0.5, 0.2)
GSRS Abdominal Pain, change from Baseline to Month 6 ([11]; All Patients, Stage 1): 0.0
GSRS Constipation, change from Baseline to Month 6 ([11]; All Patients, Stage 1): +0.1
GSRS Indigestion, change from Baseline to Month 6 ([11]; All Patients, Stage 1): −0.1
GSRS Reflux, change from Baseline to Month 6 ([11]; All Patients, Stage 1): −0.1
GSRS Abdominal Pain, change to Month 24 [11, 14]: −0.2 (−0.6, 0.1)
GSRS Constipation, change to Month 24 [11, 14]: −0.5 (−1.1, +0.0)*^5
GSRS Diarrhea, change to Month 24 [11, 14]: −1.0 (−1.5, −0.4)*^4
GSRS Indigestion, change to Month 24 [11, 14]: −0.5 (−0.8, −0.06)*^4
GSRS Reflux, change to Month 24 [11, 14]: −0.6 (−1.5, 0.2)
GSRS Abdominal Pain, change from Baseline to Month 6 [11, 15]: −0.1
GSRS Constipation, change from Baseline to Month 6 [11, 15]: +0.2
GSRS Diarrhea, change from Baseline to Month 6 [11, 15]: −0.6
GSRS Indigestion, change from Baseline to Month 6 [11, 15]: −0.2
GSRS Reflux, change from Baseline to Month 6 ([11]; Patients with Symptoms at BL, Stage 1, p = 0.047): −0.6*^3
patients with serious adverse events ([12]; Stage 1, DGJ arm): 2 patients
nasopharyngitis frequency ([12]; Stage 1, DGJ, 6/34 patients): 18%
headache frequency ([12]; Stage 1, DGJ, 12/34 patients): 35%
procedural pain frequency ([12]; Stage 2, 7/63 patients, related to kidney biopsies): 11%
headache frequency ([12]; Stage 2, 9/63 patients): 14%
serious adverse events possibly related to DGJ ([12]; fatigue and paresthesia, same patient, months 12-24, resolved): Two serious adverse events were assessed as possibly related to DGJ
deaths ([12]; in vivo): No deaths were reported
discontinuation due to adverse events ([12]; in vivo): No adverse events led to DGJ discontinuation
severity of adverse events ([12]; in vivo): Most adverse events were mild or moderate in severity
vital sign, physical findings, laboratory and ECG parameters ([12]; in vivo): did not reveal any clinically relevant effect of DGJ
bronchitis frequency [12, 16]: 11%
headache frequency [12, 16]: 11%
proteinuria frequency ([12]; open-label-extension, 9/57 patients): 16%
patients whose 24-hour urine protein remained stable during DGJ treatment ([12]; patients with baseline proteinuria <300 mg/24-h): 23/28
